Key:
[1] = 101.33 kPa, Liquid, Pycnometric method
[2] = excess molar enthalpy (molar enthalpy of mixing); xn = mol fraction of the nth substance listed; conditions: 297.15 K, 101 kPa, Liquid, Constant Pressure Calorimeter

C1CCNCC1 [piperidine]
[1]
Conditions	mass density [kg/m3]
293.65 K	873.5
296.05 K	867.1
298.15 K	864.6
300.05 K	856.3
302.65 K	852.4
304.55 K	852.6
306.45 K	852.5
308.25 K	850.6
310.35 K	846.3
313.75 K	842.2
315.15 K	840.8
317.35 K	837.7
319.15 K	835.3
321.15 K	833.5
323.05 K	831.4

C1CCNCC1 [piperidine] + O
[2]
Conditions	excess molar enthalpy [kcal/mol]
x2 = 0	0
x2 = 0.05	-0.0853
x2 = 0.09	-0.123
x2 = 0.15	-0.18
x2 = 0.21	-0.268
x2 = 0.25	-0.35
x2 = 0.3	-0.4
x2 = 0.35	-0.437
x2 = 0.4	-0.461
x2 = 0.45	-0.475
x2 = 0.5	-0.511
x2 = 0.55	-0.532
x2 = 0.6	-0.53
x2 = 0.65	-0.522
x2 = 0.7	-0.495
x2 = 0.75	-0.469
x2 = 0.93	-0.234
x2 = 0.96	-0.159
x2 = 0.99	-0.0557

c1ccncc1 [pyridine]
[1]
Conditions	mass density [kg/m3]
293.95 K	981
295.35 K	979.2
297.25 K	977.9
299.15 K	975.3
301.25 K	972.8
303.25 K	971.7
305.15 K	969.9
307.25 K	967.9
309.25 K	965.2
311.35 K	963.6
313.15 K	961.6
315.35 K	959.8
317.55 K	956.3
319.55 K	953.9
321.15 K	953.1

c1ccncc1 [pyridine] + O
[2]
Conditions	excess molar enthalpy [kcal/mol]
x2 = 0	0
x2 = 0.05	-0.028
x2 = 0.1	-0.061
x2 = 0.15	-0.11
x2 = 0.2	-0.156
x2 = 0.25	-0.21
x2 = 0.3	-0.247
x2 = 0.35	-0.284
x2 = 0.4	-0.33
x2 = 0.45	-0.374
x2 = 0.5	-0.389
x2 = 0.55	-0.388
x2 = 0.6	-0.378
x2 = 0.65	-0.366
x2 = 0.7	-0.332
x2 = 0.73	-0.318
x2 = 0.89	-0.154
x2 = 0.92	-0.121
x2 = 0.95	-0.0804
x2 = 0.98	-0.0364

O [water] + C1CCNCC1
Conditions	excess molar enthalpy [kcal/mol]
[2], x1 = 1	0

O [water] + c1ccncc1
Conditions	excess molar enthalpy [kcal/mol]
[2], x1 = 1	0

Source: the NIST ThermoML archive (doi:10.1016/j.fluid.2009.10.018)
